This passage reports EC50 and Ki results from patent publication US20240166639A1, “POTENT AND SELECTIVE COMPOUNDS AS SEROTONIN 1B RECEPTOR MODULATORS” (LEUKOS BIOTECH, S.L., priority 2020, published 2024).

Where a name gives a salt, the structure may show the parent alone.

Data set [1] concerns peripheral blood-mononuclear blood cells. Briefly: Healthy blood cells viability assay. Conditions: 48 h treatment, read-out: EC50 (uM), cytotoxic capacity on healthy cells. The class given is cell-based. The method, then: 0.5×10^6 peripheral blood-mononuclear blood cells per mL were cultured in completed RPM medium, supplemented with 10% FBS. Compounds were added to the medium at 0.5/1/5/10/50 μM, while controls were treated with equivalent concentration of vehicle (DMSO). Upon 48 h treatment, cells were stained with the live-dead discrimination dye 7-AAD and Hoechst 33342, the pan-hernatopoietic surface marker CD45, and acquired in a flow cytometer, with a volumetric counting. Live cells were discriminated based on a discrete FSC-SSC profile, 7-AAD negativity, dim positivity to Hoechst 33342 and CD45 positivity. EC50 was calculated with the Prism GraphPad software.

For another data set, the system named is HL-60. Briefly: Cell viability assay, AML cell line HL-60. Type of data set: cell-based. Conditions: 48 h treatment, live cells by flow cytometry. How it is done: (§1) 0.15×10^6 AML cell lines (HL-60 or MonoMac-1) per mL were cultured in completed RPMI medium, supplemented with 10% Fetal bovine serum (FBS). Compounds were added to the medium at the concentration indicated (0.1, 1 and 10 μM), while controls were treated with equivalent concentration of vehicle (DMSO). Primary validation screenings were analyzed after 72 h of treatment, EC50 was determined upon 48 h treatments. Cells were stained with the live-dead discrimination dye 7-aminoactinomycin D (7-AAD) and Hoechst 33342 and acquired in a flow cytometer, with a volumetric counting. Live cells were discriminated based on a discrete FSC-SSC profile, 7-AAD negativity and dim positivity to Hoechst 33342. EC50 was calculated with the Prism GraphPad software.
In general terms: Flow cytometry measures light scatter and fluorescence of single cells or particles in a stream.

For another data set, the system named is MonoMac-1. Briefly: Cell viability assay, AML cell line MonoMac-1. The class given is cell-based. Conditions: 48 h treatment, live cells by flow cytometry. The method, then: as §1
A further data set addresses human 5-HT2A receptor (Homo sapiens (Human), UniProt P28223). Briefly: Competition binding in human 5-HT2A receptor. Conditions: [3H]-Ketanserin, CHO-5-HT2A membranes; read-out: h5-HT2A Ki. How it is done:
Serotonin 5-HT2A receptor competition binding experiments were carried out in a polypropilene 96-well plate. In each well was incubated 80 μg of membranes from CHO-5-HT2A cell line prepared in the laboratory (protein concentration=4337 μg/ml), 1 nM [^3H]-Ketanserin (47.3 Ci/mmol, 1 mCi/ml, Perkin Elmer NET791250UC) and compounds studied and standard. Non-specific binding was determined in the presence of Methysergide 1 μM (Sigma M137). The reaction mixture (Vt: 250 μl/well) was incubated at 37° C. for 30 min, 200 μL was transfered to GF/B 96-well plate (Millipore, Madrid, Spain) pretreated with 0.5% of PEI and treated with binding buffer (Tris-HCl 50 mM, pH=7.4), after was filtered and washed six times with 250 μl wash buffer (Tris-HCl 50 mM, pH=6.6), before measuring in a microplate beta scintillation counter (Microbeta Trilux, PerkinElmer, Madrid, Spain).
The raw radioactivity data is adjusted to a logistic regression of 4 parameters using GraphPad Prism software, from the specific junction the value of IC50 is obtained. From the IC50 the Ki is calculated according to the following formula: […]
(§2) Being: • IC50: inhibitory concentration, • D: real concentration of radioligand and • Kd: dissociation constant (affinity of radioligand to the receptor).

In another data set the target is human 5-HT1B receptor (Homo sapiens (Human), UniProt P28222). Description: Competition binding in human 5-HT1B receptor. Conditions: [3H]-GR125743, Hela-5-HT1B membranes; read-out: h5-HT1B Ki. The method, then: Serotonin 5-HT1B receptor competition binding experiments were carried out in a polypropylene 96-well plate. In each well was incubated 5 μg of membranes from Hela-5-HT1B cell line prepared in the laboratory (Lot: A001/14-11-2011, protein concentration=3179 μg/ml), 1.5 nM [^3H]-GR125743 ([…], 0.1 mCi/ml, Perkin Elmer NET1172100UC) and compounds studied and standard. Non-specific binding was determined in the presence of GR55562 10 μM (TOCRIS 1054). The reaction mixture (Vt: 250 μl/well) was incubated at 25° C. for 90 min, 200 μL was transfered to GF/C 96-well plate (Millipore, Madrid, Spain) pretreated with 0.5% of PEI and treated with binding buffer (Tris-HCl 50 mM, EDTA 1 mM, MgCl2 10 mM, pH=7.4), after was filtered and washed four times with 250 μl wash buffer (Tris-HCl 50 mM, pH=7.4), before measuring in a microplate beta scintillation counter (Microbeta Trilux, PerkinElmer, Madrid, Spain). […] From the IC50 the Ki is calculated according to the following formula: […]
Sequence of human 5-HT1B receptor (P28222 whole entry): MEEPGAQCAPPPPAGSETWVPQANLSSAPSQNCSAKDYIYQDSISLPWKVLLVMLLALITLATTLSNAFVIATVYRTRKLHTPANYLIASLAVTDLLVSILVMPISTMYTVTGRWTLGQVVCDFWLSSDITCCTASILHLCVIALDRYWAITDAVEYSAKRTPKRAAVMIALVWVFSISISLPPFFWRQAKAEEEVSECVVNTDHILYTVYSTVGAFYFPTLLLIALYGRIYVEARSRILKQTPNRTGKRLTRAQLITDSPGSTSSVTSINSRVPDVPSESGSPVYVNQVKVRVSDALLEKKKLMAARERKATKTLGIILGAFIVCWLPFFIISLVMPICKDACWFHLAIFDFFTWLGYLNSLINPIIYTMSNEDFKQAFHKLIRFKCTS
as §2

Sequence of human 5-HT2A receptor (P28223 whole entry): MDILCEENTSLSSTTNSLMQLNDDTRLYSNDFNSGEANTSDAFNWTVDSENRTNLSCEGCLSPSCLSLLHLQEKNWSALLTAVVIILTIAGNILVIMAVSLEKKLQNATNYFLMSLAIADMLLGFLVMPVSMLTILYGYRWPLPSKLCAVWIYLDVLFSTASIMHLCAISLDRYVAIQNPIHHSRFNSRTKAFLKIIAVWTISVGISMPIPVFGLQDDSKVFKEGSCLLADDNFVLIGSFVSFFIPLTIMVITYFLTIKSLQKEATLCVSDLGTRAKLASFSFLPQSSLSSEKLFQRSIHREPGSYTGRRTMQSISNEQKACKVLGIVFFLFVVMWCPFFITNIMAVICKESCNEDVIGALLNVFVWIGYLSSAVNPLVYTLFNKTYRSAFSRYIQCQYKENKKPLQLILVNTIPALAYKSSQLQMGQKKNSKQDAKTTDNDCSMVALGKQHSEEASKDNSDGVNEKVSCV

In the case of `COc1ccc(NC(=O)c2ccc(-c3ccc(-c4noc(C)n4)cc3C)cc2)cc1OCCN(C)C` [SB41, N-[3-[3-(Dimethylamino)ethoxy]-4-methoxyphenyl]-2′-methyl-4′-(5-methyl-1,2,4-oxadiazol-3-yl)-[1,1′-biphenyl]-4-carboxamide hydrochloride, reference compound], the EC50 in data set [1] was found to be 12.5 µM; with HL-60 it was 7.32 µM; with MonoMac-1, 2.48 µM. Further, the Ki was determined as 0.143 µM at human 5-HT2A receptor and 0.0006 µM on human 5-HT1B receptor.

In general, EC50 refers to the concentration that produces a half-maximal response. As a reminder, the Ki is the dissociation constant of the complex between target and ligand, obtained from inhibition or displacement.
